Read-outs that look alike come from different tables or passages of the source.
Experiments:
Assay in all cases: Post-emergence efficacy, Method A
Format in all cases: in vivo
[1] = system: Digitaria sanguinalis (DIGSA); conditions: Digitaria sanguinalis, post-emergence, 312 h, evaluated after 13 days
Method in brief: (§1)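 Plants grown 14 days in glasshouse (24/16 °C, 14 h light, 65% humidity) were sprayed with compound formulated in IF50. The spray was diluted in 0.25% or 1% Empicol ESC70 plus 1% ammonium sulphate. Damage was scored 13 days later on a 0-100 scale, where 100 is total damage.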

[2] = system: Ipomoea hederacea (IPOHE); conditions: Ipomoea hederacea, post-emergence, 312 h, evaluated after 13 days
Method in brief: as §1

[3] = system: Echinochloa crus-galli (ECHCG); conditions: Echinochloa crus-galli, post-emergence, 312 h, evaluated after 13 days
Method in brief: as §1

[4] = system: Euphorbia heterophylla (EPHHL); conditions: Euphorbia heterophylla, post-emergence, 312 h, evaluated after 13 days
Method in brief: as §1

[5] = system: Chenopodium album (CHEAL); conditions: Chenopodium album, post-emergence, 312 h, evaluated after 13 days
Method in brief: as §1

[6] = system: Amaranthus palmeri (AMAPA); conditions: Amaranthus palmeri, post-emergence, 312 h, evaluated after 13 days
Method in brief: as §1

Eleusine indica (ELEIN) = conditions: Eleusine indica, post-emergence, 312 h, evaluated after 13 days
Method in brief: as §1

Setaria faberi (SETFA) = conditions: Setaria faberi, post-emergence, 312 h, evaluated after 13 days
Method in brief: as §1

Lolium perenne (LOLPE) = conditions: Lolium perenne, post-emergence, 312 h, evaluated after 13 days
Method in brief: as §1

[7] = Application rate 500 g/Ha, 100=total damage to plant, 0=no damage to plant, read-out: Control of weed species after post-emergence application, DIGSA
[8] = Application rate 500 g/Ha, 100=total damage to plant, 0=no damage to plant, read-out: Control of weed species after post-emergence application, IPOHE
[9] = Application rate 500 g/Ha, 100=total damage to plant, 0=no damage to plant, read-out: Control of weed species after post-emergence application, ECHCG
[10] = Application rate 500 g/Ha, 100=total damage to plant, 0=no damage to plant, read-out: Control of weed species after post-emergence application, EPHHL
[11] = Application rate 500 g/Ha, 100=total damage to plant, 0=no damage to plant, read-out: Control of weed species after post-emergence application, CHEAL
[12] = Application rate 500 g/Ha, 100=total damage to plant, 0=no damage to plant, read-out: Control of weed species after post-emergence application, AMAPA
[13] = Application rate 500 g/Ha, 100=total damage to plant, 0=no damage to plant, read-out: Control of weed species after post-emergence application, ELEIN
[14] = Application rate 500 g/Ha, 100=total damage to plant, 0=no damage to plant, read-out: Control of weed species after post-emergence application, SETFA
[15] = Application rate 500 g/Ha, 100=total damage to plant, 0=no damage to plant, read-out: Control of weed species after post-emergence application, LOLPE
[16] = Application Rate 500 g/Ha, Method A, read-out: Control of weed species after post-emergence application, DIGSA (100=total damage to plant; 0=no damage to plant)
[17] = Application Rate 500 g/Ha, Method A, read-out: Control of weed species after post-emergence application, IPOHE (100=total damage to plant; 0=no damage to plant)
[18] = Application Rate 500 g/Ha, Method A, read-out: Control of weed species after post-emergence application, ECHCG (100=total damage to plant; 0=no damage to plant)
[19] = Application Rate 500 g/Ha, Method A, read-out: Control of weed species after post-emergence application, EPHHL (100=total damage to plant; 0=no damage to plant)
[20] = Application Rate 500 g/Ha, Method A, read-out: Control of weed species after post-emergence application, CHEAL (100=total damage to plant; 0=no damage to plant)
[21] = Application Rate 500 g/Ha, Method A, read-out: Control of weed species after post-emergence application, AMAPA (100=total damage to plant; 0=no damage to plant)
[22] = Application Rate 500 g/Ha, Method A, read-out: Control of weed species after post-emergence application, ELEIN (100=total damage to plant; 0=no damage to plant)
[23] = Application Rate 500 g/Ha, Method A, read-out: Control of weed species after post-emergence application, SETFA (100=total damage to plant; 0=no damage to plant)
[24] = Application Rate 500 g/Ha, Method A, read-out: Control of weed species after post-emergence application, LOLPE (100=total damage to plant; 0=no damage to plant)

SMILES	pest or weed control at 500 g/ha [1, 7] [%]	pest or weed control at 500 g/ha [2, 8] [%]	pest or weed control at 500 g/ha [3, 9] [%]	pest or weed control at 500 g/ha [4, 10] [%]	pest or weed control at 500 g/ha [5, 11] [%]	pest or weed control at 500 g/ha [6, 12] [%]	pest or weed control at 500 g/ha (Eleusine indica (ELEIN); [13]) [%]	pest or weed control at 500 g/ha (Setaria faberi (SETFA); [14]) [%]	pest or weed control at 500 g/ha (Lolium perenne (LOLPE); [15]) [%]	pest or weed control at 500 g/ha [1, 16] [%]	pest or weed control at 500 g/ha [2, 17] [%]	pest or weed control at 500 g/ha [3, 18] [%]	pest or weed control at 500 g/ha [4, 19] [%]	pest or weed control at 500 g/ha [5, 20] [%]	pest or weed control at 500 g/ha [6, 21] [%]	pest or weed control at 500 g/ha (Eleusine indica (ELEIN); [22]) [%]	pest or weed control at 500 g/ha (Setaria faberi (SETFA); [23]) [%]	pest or weed control at 500 g/ha (Lolium perenne (LOLPE); [24]) [%]
CCOP(=O)(CC[n+]1ccc(-c2ncccn2)cn1)OCC [Compound A124, 1-(2-diethoxyphosphorylethyl)-4-pyrimidin-2-yl-pyridazin-1-ium]	10	0	0	0	0	0	0	20	0	–	–	–	–	–	–	–	–	–
CN(C)C(=O)c1cnc(-c2cc[n+](CCC(=O)[O-])nc2)nc1 [Compound A92]	60	100	80	70	90	90	90	90	50	–	–	–	–	–	–	–	–	–
COc1cncc(-c2cc[n+](CCCS(=O)(=O)[O-])nc2)n1 [Compound A90]	30	30	20	60	20	40	20	30	20	–	–	–	–	–	–	–	–	–
Cc1cnc(-c2cc[n+](CCC(=O)O)nc2)c(F)c1 [Compound A178]	–	–	–	–	–	–	–	–	–	10	20	10	40	70	90	0	10	0
O=S(=O)([O-])CC[n+]1ccc(-c2cc(C(F)(F)F)ncn2)cn1 [Compound A109]	50	50	40	60	60	60	50	30	30	–	–	–	–	–	–	–	–	–
Cc1n[n+](CCC(=O)O)ccc1-c1ccccn1 [Compound A145]	10	10	0	10	10	10	0	0	0	–	–	–	–	–	–	–	–	–
O=C([O-])CC[n+]1ccc(-c2ccc(F)cn2)cn1 [Compound A71]	30	40	30	40	60	100	30	30	10	–	–	–	–	–	–	–	–	–
Cc1cc(Cl)cnc1-c1cc[n+](CCC(=O)O)nc1 [Compound A156]	–	–	–	–	–	–	–	–	–	20	10	10	50	50	30	20	20	0
Cc1cc(-c2ncccn2)cn[n+]1CCS(=O)(=O)[O-] [Compound A212, 2-(6-methyl-4-pyrimidin-2-yl-pyridazin-1-ium-1-yl)ethanesulfonate]	–	–	–	–	–	–	–	–	–	90	30	70	100	100	100	90	80	70
